SMILES strings stand for the structures.

In one assay the target is T1, FXR (Homo sapiens, UniProt Q96RI1).
T1 construct: 5 μL of 20 nM FXR-LBD Complete Coregulator buffer G; purchased ThermoFisher PV4833
T1 sequence (Q96RI1 262-486 limits assumed): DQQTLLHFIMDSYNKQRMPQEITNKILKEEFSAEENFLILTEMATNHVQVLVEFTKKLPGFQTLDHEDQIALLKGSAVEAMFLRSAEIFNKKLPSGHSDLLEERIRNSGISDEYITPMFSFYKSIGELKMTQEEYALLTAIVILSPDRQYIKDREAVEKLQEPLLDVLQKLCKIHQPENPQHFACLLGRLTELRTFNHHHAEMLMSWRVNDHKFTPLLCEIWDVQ
Description: FXR antagonist screening by TR-FRET (LanthaScreen TR-FRET FXR co-activation assay kit). In kind it is biochemical. Conditions: Table 1.1, FXR antagonistic activity; TR-FRET with CDCA; geometric means of at least two independent runs. The method in brief: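 FXR-LBD (20 nM working solution) mixed with compound, CDCA (200 μM working solution) as agonist, Fluorescein-SRC2-2 and Tb-anti-GST antibody in Coregulator buffer G; 10 h at room temperature. Coactivator recruitment read by TR-FRET, triplicate wells.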
On to `CCOC(=O)c1oc2ccc(S(=O)(=O)N(CCc3ccccc3)c3ccc(N4CCOCC4)cc3)cc2c1C` [Example M8-63, ethyl 3-methyl-5-(N-(4-morpholinophenyl)-N-phenethylsulfamoyl)benzofuran-2-carboxylate], for which the IC50 (commonly the concentration that gives 50% inhibition) lay in the range of 50 to 100 µM.

Regarding `CCOC(=O)c1oc2ccc(S(=O)(=O)N(CCc3ccccc3)Cc3ccc(F)cc3)cc2c1C` [Example M4-28, ethyl 3-methyl-5-(N-(4-fluorobenzyl)-N-phenethylsulfamoyl)benzofuran-2-carboxylate], the half-maximal inhibitory concentration (IC50) was 50 to 100 µM.

For the compound `CCOC(=O)c1oc2ccc(S(=O)(=O)N(CCc3ccccc3)Cc3ccccc3N3CCN(C(=O)OC(C)(C)C)CC3)cc2c1C` [Example M8-87, ethyl 3-methyl-5-(N-(2-(4-(tert-butoxycarbonyl)piperazin-1-yl)benzyl)-N-phenethylsulfamoyl)benzofuran-2-carboxylate], the IC50 was 50 to 100 µM.

In turn, `Cc1c(C(=O)O)oc2ccc(S(=O)(=O)N(CCc3ccccc3)CCc3ccccc3)cc12` [Example F27-S13, 3-methyl-5-(N,N-diphenylethylsulfamoyl)benzofuran-2-carboxylic acid] showed an IC50 of 10 to 50 µM.

In turn, `CCOC(=O)c1oc2ccc(S(=O)(=O)N(CCc3ccccc3)Cc3ccccc3N3CCN(C(=O)c4ccccc4)CC3)cc2c1C` [Example M10-105, ethyl 3-methyl-5-(N-(2-(4-benzoylpiperazin-1-yl)benzyl)-N-phenethylsulfamoyl)benzofuran-2-carboxylate] yielded an IC50 of 50 to 100 µM.

`CCOC(=O)c1oc2ccc(S(=O)(=O)N(CCc3ccccc3)c3ccccc3)cc2c1C` [Example M8-10] displayed an IC50 of 50 to 100 µM.

For `CCOC(=O)c1oc2ccc(S(=O)(=O)N(CCc3ccccc3)c3ccc(N4CCN(C(=O)N(C)C)CC4)cc3)cc2c1C` [Example M8-71, ethyl 3-methyl-5-(N-(4-(4-(dimethylcarbamoyl)piperazin-1-yl)phenyl)-N-phenethylsulfamoyl)benzofuran-2-carboxylate], the IC50 is 50 to 100 µM.

As to `Cc1c(C(=O)O)oc2ccc(S(=O)(=O)N(CCc3ccccc3)Cc3cccc4cccnc34)cc12` [Example F27-S44, 3-methyl-5-(N-(quinolin-8-ylmethyl)-N-phenethylsulfamoyl)benzofuran-2-carboxylic acid], the 50% inhibitory concentration (IC50) lay in the range of 10 to 50 µM.

Staying with this assay, now noted: Table 1.2, FXR antagonistic activity; TR-FRET with CDCA; geometric means of at least two independent runs.
In the case of `CCOC(=O)c1oc2ccc(S(=O)(=O)N(CCc3ccccc3)c3ccccc3N3CCN(C(=O)c4sccc4Br)CC3)cc2c1C` [Example M10-125, ethyl 5-(N-(2-(4-(3-bromothiophene-2-carbonyl)piperazin-1-yl)phenyl)-N-phenethylsulfamoyl)-3-methylbenzofuran-2-carboxylate], the IC50 lay within 50 to 100 µM.

Turning to `Cc1c(C(=O)O)oc2ccc(S(=O)(=O)N(CCc3ccccc3)c3ccccc3N3CCN(C(=O)c4cncs4)CC3)cc12` [Example F27-S129, 3-methyl-5-(N-phenethyl-N-(2-(4-(thiazole-5-carbonyl)piperazin-1-yl)phenyl)sulfamoyl)benzofuran-2-carboxylic acid], the IC50 is 0.1 to 10 µM.

The compound `CCOC(=O)c1oc2ccc(S(=O)(=O)N(CCc3ccccc3)c3ccccc3N3CCN(C(=O)c4sccc4Br)C[C@@H]3C)cc2c1C` [Example M10-152, (S)-ethyl-5-(N-(2-(4-(3-bromothiophene-2-carbonyl)-2-methylpiperazin-1-yl)phenyl)-N-phenethylsulfamoyl)-3-methylbenzofuran-2-carboxylate] displayed an IC50 of 50 to 100 µM.

With `Cc1c(C(=O)O)sc2ccc(S(=O)(=O)N(CCC3CCCCC3)c3ccccc3N3CCN(C(=O)c4sccc4Br)CC3)cc12` [Example F27-S180, 5-(N-(2-(4-(3-bromothiophene-2-carbonyl)piperazin-1-yl)phenyl)-N-(2-cyclohexylethyl)sulfamoyl)-3-methylbenzothiophene-2-carboxylic acid], the IC50 was in the range of 0.1 to 10 µM.

With `Cc1c(C(=O)O)oc2ccc(S(=O)(=O)N(CCc3ccccc3)c3ccccc3N3CCCN(C(=O)c4sccc4Br)CC3)cc12` [Example F27-S154, 5-(N-(2-(4-(3-bromothiophene-2-formyl)-1,4-diazepin-1-yl)phenyl)-N-phenethylsulfamoyl)3-methylbenzofuran-2-carboxylic acid], the half-maximal inhibitory concentration (IC50) was in the range of 0.1 to 10 µM.

`Cc1cccc(C(=O)N2CCN(c3ccccc3N(CCc3ccccc3)S(=O)(=O)c3ccc4oc(C(=O)O)c(C)c4c3)CC2)c1` [Example F27-S108, 3-methyl-5-(N-(2-(4-(3-methylbenzoyl)piperazin-1-yl)phenyl)-N-phenethylsulfamoyl)benzofuran-2-carboxylic acid]: the IC50 lay within 0.1 to 10 µM.

In the case of `Cc1c(C(=O)O)sc2ccc(S(=O)(=O)N(CCc3cccc(Cl)c3)c3ccccc3N3CCN(C(=O)c4sccc4Br)CC3)cc12` [Example F27-S172, 5-(N-(2-(4-(3-bromothiophene-2-carbonyl)piperazin-1-yl)phenyl)-N-(3-chlorophenethyl)sulfamoyl)-3-methylbenzothiophene-2-carboxylic acid], the IC50 is 0.1 to 10 µM.

`CCOC(=O)c1oc2ccc(S(=O)(=O)N(CCc3ccccc3)c3ccccc3N3CCN(C(=O)c4ccc(C)cc4)CC3)cc2c1C` [Example M10-106, ethyl 3-methyl-5-(N-(2-(4-(4-methylbenzoyl)piperazin-1-yl)phenyl)-N-phenethylsulfamoyl)benzofuran-2-carboxylate] registered an IC50 of 50 to 100 µM.

`Cc1c(C(=O)O)sc2ccc(S(=O)(=O)N(CCc3ccc(C(=O)O)cc3)c3ccccc3N3CCN(C(=O)c4sccc4Br)CC3)cc12` [Example F27-S168, 5-(N-(2-(4-(3-bromothiophene-2-carbonyl)piperazin-1-yl)phenyl)-N-(4-carboxyphenethyl)sulfamoyl)-3-toluenothiophene-2-carboxylic acid]: the IC50 was in the range of 0.1 to 10 µM.

As to `Cc1c(CO)oc2ccc(S(=O)(=O)N(CCc3ccccc3)c3ccccc3N3CCN(C(=O)c4sccc4Br)CC3)cc12` [Example F27-S184, N-(2-(4-(3-bromothiophene-2-formyl)piperazin-1-yl)phenyl)-2-hydroxymethyl-3-methyl-N-phenethylbenzofuran-5-sulfonamide], the IC50 lay in the range of 0.1 to 10 µM.

On to `CCOC(=O)c1oc2ccc(S(=O)(=O)N(CCc3ccccc3)c3ccccc3N3CCN(C(=O)c4cc(Br)cs4)CC3)cc2c1C` [Example M10-127, Ethyl 5-(N-(2-(4-(4-bromothiophene-2-carbonyl)piperazin-1-yl)phenyl)-N-phenethylsulfamoyl)-3-methylbenzofuran-2-carboxylate], for which the concentration for half-maximal inhibition (IC50) fell in the range of 50 to 100 µM.

`CCOC(=O)c1oc2ccc(S(=O)(=O)N(CCc3ccccc3)c3ccccc3N3CCN(C(=O)c4ccco4)CC3)cc2c1C` [Example M10-121, Ethyl 5-(N-(2-(4-(furan-2-carbonyl)piperazin-1-yl)phenyl)-N-phenethylsulfamoyl)-3-methylbenzofuran-2-carboxylate]: the half-inhibitory concentration (IC50) is 50 to 100 µM.

Take `Cc1c(C(=O)O)sc2ccc(S(=O)(=O)N(CCc3ccccc3Cl)c3ccccc3N3CCN(C(=O)c4sccc4Br)CC3)cc12` [Example F27-S173, 5-(N-(2-(4-(3-bromothiophene-2-carbonyl)piperazin-1-yl)phenyl)-N-(2-chlorophenethyl)sulfamoyl)-3-methylbenzothiophene-2-carboxylic acid]: the IC50 fell in the range of 0.1 to 10 µM.
